# Values of other authors in patent US9920373B2, “Biomarkers of response to proteasome inhibitors” (MILLENNIUM PHARMACEUTICALS, INC., priority 2011, dated 2018).
# Details: upon exposure to aqueous solutions or plasma; cited from earlier work
compound,measurement,value
"CC(C)C[C@H](NC(=O)CNC(=O)c1cc(Cl)ccc1Cl)B1OC(=O)C(CC(=O)O)(CC(=O)O)O1 [MLN9708, 2,2′-{2-[(1R)-1-({[(2,5dichlorobenzoyl)amino]acetyl}amino)-3-methylbutyl]-5-oxo-1,3,2-dioxaborolane-4,4-diyl}diacetic acid]",hydrolysis to the biologically active form,immediately hydrolyzes to MLN2238
